How the values were obtained:
cotton = experiment: Preemergent control of plant species; assay type: in vivo, Gossypium spp.; details: Gossypium hirsutum, pre-emergence, 336 h; 0.25 lb/acre; read-out: percent preemergent control
How it was run: (§1)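 Preemergent application of aqueous emulsions at rates given in the table, uniformly over seeded greenhouse soil. Untreated (water) beds as comparison; rating after 2 weeks as reduction in growth.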

rice = experiment: Postemergent control of plant species; assay type: in vivo, Oryza sativa; details: Oryza sativa, post-emergence, 336 h, read-out: percent postemergent control
How it was run: (§2)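 Each compound is dissolved in acetone, mixed with an equal volume of 0.1% surfactant water, and sprayed on plants grown to 2-4 leaves in nutrient soil. Treated and untreated beds sit under identical greenhouse temperature and light for roughly two weeks before growth reduction is rated.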

yellow foxtail [1] = experiment: Postemergent control of plant species; assay type: in vivo, Setaria lutescens; details: Setaria, post-emergence, 336 h, read-out: percent postemergent control
How it was run: as §2

yellow foxtail [2] = experiment: Preemergent control of plant species; assay type: in vivo, Setaria lutescens; details: Setaria, pre-emergence, 336 h; 0.25 lb/acre; read-out: percent preemergent control
How it was run: as §1

corn = experiment: Preemergent control of plant species; assay type: in vivo, Zea mays; details: Zea mays, pre-emergence, 336 h; 0.25 lb/acre; read-out: percent preemergent control
How it was run: as §1

soybean [3] = experiment: Preemergent control of plant species; assay type: in vivo, Glycine max.; details: Glycine max, pre-emergence, 336 h; 0.25 lb/acre; read-out: percent preemergent control
How it was run: as §1

[4] = test system: nitrification of ammonium nitrogen; experiment: Suppression of nitrification of ammonium nitrogen in soil; details: 27° C.
How it was run: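 Soil (20 g) moistened to its 1/3 bar tension value, mixed with test chemical and incubated sealed for two weeks at 27° C. Nitrate extracted with ammonium sulfate solution and measured by nitrate-specific ion electrode; value given as % NH4-N remaining.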

yellow nutsedge = experiment: Postemergent control of plant species; assay type: in vivo, Cyperus esculentus; details: Cyperus, post-emergence, 336 h, read-out: percent postemergent control
How it was run: as §2

barnyardgrass = experiment: Postemergent control of plant species; assay type: in vivo, Echinochloa crusgalli; details: Echinochloa crus-galli, post-emergence, 336 h, read-out: percent postemergent control
How it was run: as §2

johnson grass [5] = experiment: Postemergent control of plant species; assay type: in vivo, Sorghum halepense; details: Sorghum halepense, post-emergence, 336 h, read-out: percent postemergent control
How it was run: as §2

cocklebur = experiment: Postemergent control of plant species; assay type: in vivo, Xanthium spp.; details: Xanthium strumarium, post-emergence, 336 h, read-out: percent postemergent control
How it was run: as §2

pigweed = experiment: Postemergent control of plant species; assay type: in vivo, Amaranthus spp.; details: Amaranthus retroflexus, post-emergence, 336 h, read-out: percent postemergent control
How it was run: as §2

soybean [6] = experiment: Postemergent control of plant species; assay type: in vivo, Glycine max.; details: Glycine max, post-emergence, 336 h, read-out: percent postemergent control
How it was run: as §2

wheat [7] = experiment: Preemergent control of plant species; assay type: in vivo, Triticum aestivum; details: Triticum aestivum, pre-emergence, 336 h; 0.25 lb/acre; read-out: percent preemergent control
How it was run: as §1

wild oats = experiment: Preemergent control of plant species; assay type: in vivo; details: Avena fatua, pre-emergence, 336 h; 0.25 lb/acre; read-out: percent preemergent control
How it was run: as §1

annual morning glory [8] = experiment: Preemergent control of plant species; assay type: in vivo, Ipomoea spp.; details: Ipomoea, pre-emergence, 336 h; 0.25 lb/acre; read-out: percent preemergent control
How it was run: as §1

johnson grass [9] = experiment: Preemergent control of plant species; assay type: in vivo, Sorghum halepense; details: Sorghum halepense, pre-emergence, 336 h; 0.25 lb/acre; read-out: percent preemergent control
How it was run: as §1

annual morning glory [10] = experiment: Postemergent control of plant species; assay type: in vivo, Ipomoea spp.; details: Ipomoea, post-emergence, 336 h, read-out: percent postemergent control
How it was run: as §2

crabgrass [11] = experiment: Preemergent control of plant species; assay type: in vivo, Digitaria spp.; details: Digitaria sanguinalis, pre-emergence, 336 h; 0.25 lb/acre; read-out: percent preemergent control
How it was run: as §1

crabgrass [12] = experiment: Postemergent control of plant species; assay type: in vivo, Digitaria spp.; details: Digitaria sanguinalis, post-emergence, 336 h, read-out: percent postemergent control
How it was run: as §2

jimsonweed = experiment: Postemergent control of plant species; assay type: in vivo, Datura stramonium; details: Datura stramonium, post-emergence, 336 h, read-out: percent postemergent control
How it was run: as §2

wheat [13] = experiment: Postemergent control of plant species; assay type: in vivo, Triticum aestivum; details: Triticum aestivum, post-emergence, 336 h, read-out: percent postemergent control
How it was run: as §2

velvetleaf = experiment: Postemergent control of plant species; assay type: in vivo, Abutilon theophrasti; details: Abutilon theophrasti, post-emergence, 336 h, read-out: percent postemergent control
How it was run: as §2

rape = experiment: Postemergent control of plant species; assay type: in vivo, Brassica napus; details: Brassica napus, post-emergence, 336 h, read-out: percent postemergent control
How it was run: as §2

| Structure (SMILES) | plant injury at 280.212 g/ha (cotton) [%] | plant injury at 500 ppm (rice) [%] | pest or weed control at 500 ppm (yellow foxtail [1]) [%] | pest or weed control at 280.212 g/ha (yellow foxtail [2]) [%] | plant injury at 280.212 g/ha (corn) [%] | plant injury at 280.212 g/ha (soybean [3]) [%] | % NH4-N Remaining After 2 Weeks Incubation ([4]; 0.06 ppm) [%] | % NH4-N Remaining After 2 Weeks Incubation ([4]; 0.125 ppm) [%] | % NH4-N Remaining After 2 Weeks Incubation ([4]; 0.25 ppm) [%] | % NH4-N Remaining After 2 Weeks Incubation ([4]; 0.5 ppm) [%] | % NH4-N Remaining After 2 Weeks Incubation ([4]; 1 ppm) [%] | pest or weed control at 500 ppm (yellow nutsedge) [%] | pest or weed control at 500 ppm (barnyardgrass) [%] | pest or weed control at 500 ppm (johnson grass [5]) [%] | pest or weed control at 500 ppm (cocklebur) [%] | pest or weed control at 500 ppm (pigweed) [%] | plant injury at 500 ppm (soybean [6]) [%] | plant injury at 280.212 g/ha (wheat [7]) [%] | pest or weed control at 280.212 g/ha (wild oats) [%] | pest or weed control at 280.212 g/ha (annual morning glory [8]) [%] | also measured |
| --- | --- | --- | --- | --- | --- | --- | --- | --- | --- | --- | --- | --- | --- | --- | --- | --- | --- | --- | --- | --- | --- |
| Cc1cc(C)n2nc(S(=O)(=O)Nc3ccccc3F)nc2n1 [Compound 8] | 90 | 40 | 25 | 60 | 80 | 95 | 4 | 23 | 44 | 59 | 67 | 60 | 70 | 90 | 90 | 50 | 75 | 0 | 15 | 25 | pest or weed control at 280.212 g/ha (johnson grass [9]): 80%; pest or weed control at 500 ppm (annual morning glory [10]): 70%; pest or weed control at 280.212 g/ha (crabgrass [11]): 70%; pest or weed control at 500 ppm (crabgrass [12]): 10%; pest or weed control at 500 ppm (jimsonweed): 90%; plant injury at 500 ppm (wheat [13]): 10%; pest or weed control at 500 ppm (velvetleaf): 75%; plant injury at 500 ppm (rape): 90% |
| COC(=O)c1cccc(F)c1NS(=O)(=O)c1nc2nc(C)cc(C)n2n1 [Compound 26] | 95 | 80 | 90 | 100 | 100 | 98 | 37 | 45 | 65 | 73 | 79 | 90 | 100 | 100 | 100 | 100 | 95 | 0 | 40 | 95 | pest or weed control at 280.212 g/ha (johnson grass [9]): 98%; pest or weed control at 500 ppm (annual morning glory [10]): 90%; pest or weed control at 280.212 g/ha (crabgrass [11]): 100%; pest or weed control at 500 ppm (crabgrass [12]): 90%; pest or weed control at 500 ppm (jimsonweed): 100%; plant injury at 500 ppm (wheat [13]): 30%; pest or weed control at 500 ppm (velvetleaf): 100%; plant injury at 500 ppm (rape): 100% |

— patent US4740233A, “Substituted 1,2,4-triazolo[1,5-a]-pyrimidine-2-sulfonamides and compositions and methods of controlling undesired vegetation and suppressing the nitrification of ammonium nitrogen in soil” (The Dow Chemical Company, priority 1986, dated 1988)
